Test results as given in patent US20240246908A1 (ORION CORPORATION, priority 2021, published 2024).
pIC50: −log10 of the molar value.

Tested on: YAP-TEAD
Test: TEAD inhibition, Hippo Pathway TEAD Reporter MCF-7 luciferase assay
Format: cell-based
Details: Homo sapiens, MCF7, 24 h, Hippo Pathway TEAD Reporter MCF-7 cells, luciferase activity after 24 h; read-out: IC50 of the test compounds on YAP-TEAD inhibition (Group)
Method in brief: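 IC50 derived from ONE-Glo luciferase luminescence after 24 h compound exposure (11 concentrations in quadruplicate, 0.1% DMSO control). Reporter: MCF-7 line expressing firefly luciferase under TEAD elements, constitutively activated by nuclear YAP1.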

Structure (SMILES)	pIC50
COc1ccc(O[C@@H]2CCC[C@H](C(F)(F)F)C2)cc1NC(=O)[C@H]1CCC(=O)N1C [Compound 268, (R)—N-(2-Methoxy-5-(((1R,3S)-3-(trifluoromethyl)cyclohexyl)oxy)phenyl)-1-methyl-5-oxopyrrolidine-2-carboxamide]	6.52 to 7.30
COc1ccc(O[C@H]2CCC[C@H](C(F)(F)F)C2)cc1NC(=O)[C@H]1CCC(=O)N1C [Compound 269, (R)—N-(2-Methoxy-5-(((1S,3S)-3-(trifluoromethyl)cyclohexyl)oxy)phenyl)-1-methyl-5-oxopyrrolidine-2-carboxamide]	6.52 to 7.30
CN1C(=O)CCC1C(=O)Nc1cc(OC2CCC(C(F)(F)F)CC2)ccc1F (centres unmarked) [Compound 270, N-(2-Fluoro-5-((4-(trifluoromethyl)cyclohexyl)oxy)phenyl)-1-methyl-5-oxo-pyrrolidine-2-carboxamide]	6.52 to 7.30
COc1ccc(NC(=O)C2CCC(=O)N2C)cc1O[C@H]1CC[C@H](C(F)(F)F)CC1 (stereo partly drawn) [Compound 271, (R)—N-(4-methoxy-3-(((1r,4R)-4-(trifluoromethyl)cyclohexyl)oxy)phenyl)-1-methyl-5-oxopyrrolidine-2-carboxamide]	6.52 to 7.30
COc1ccc(NC(=O)[C@@H]2CCC(=O)N2C)cc1O[C@H]1CC[C@@H](C(F)(F)F)CC1 [Compound 272, (R)—N-(4-Methoxy-3-(((1s,4S)-4-(trifluoromethyl)cyclohexyl)oxy)phenyl)-1-methyl-5-oxopyrrolidine-2-carboxamide]	5.70 to 6.52
COc1cc(NC(=O)C2CCC(=O)N2C)cc(Oc2cccc(C(F)(F)F)c2)c1 (centres unmarked) [Compound 273, N-(3-Methoxy-5-(3-(trifluoromethyl)phenoxy)phenyl)-1-methyl-5-oxo-pyrrolidine-2-carboxamide]	6.52 to 7.30
COc1cc(NC(=O)C2CCC(=O)N2C)cc(Oc2ccc(Cl)c(C(F)(F)F)c2)c1 (centres unmarked) [Compound 274, N-(3-(4-Chloro-3-(trifluoromethyl)phenoxy)-5-methoxyphenyl)-1-methyl-5-oxopyrrolidine-2-carboxamide]	6.52 to 7.30
COc1ccc(Oc2ccc(C(F)(F)F)cn2)cc1NC(=O)C1CCC(=O)N1C (centres unmarked) [Compound 276, N-(2-methoxy-5-((5-(trifluoromethyl)pyridin-2-yl)oxy)phenyl)-1-methyl-5-oxopyrrolidine-2-carboxamide]	> 7.30
COc1cc(NC(=O)C2CCC(=O)N2C)cc(Oc2ccc(C(F)(F)F)cn2)c1 (centres unmarked) [Compound 277, N-(3-Methoxy-5-((5-(trifluoromethyl)pyridin-2-yl)oxy)phenyl)-1-methyl-5-oxopyrrolidine-2-carboxamide]	6.52 to 7.30
COc1cc(NC(=O)[C@H]2CCC(=O)N2C)cc(Oc2ccc(C(F)(F)F)cc2)c1 [Compound 278, (R)—N-(3-Methoxy-5-(4-(trifluoromethyl)phenoxy)phenyl)-1-methyl-5-oxo-pyrrolidine-2-carboxamide]	> 7.30
COc1cc(NC(=O)C2CCC(=O)N2C)cc(Oc2ccc(C(F)(F)F)cc2)c1 (centres unmarked) [Compound 279, N-(3-Methoxy-5-(4-(trifluoromethyl)phenoxy)phenyl)-1-methyl-5-oxo-pyrrolidine-2-carboxamide]	> 7.30
CN1C(=O)CC[C@@H]1C(=O)Nc1cc(Oc2ccc(C(F)(F)F)cn2)cc2cccnc12 [Compound 281, (R)-1-Methyl-5-oxo-N-(6-((5-(trifluoromethyl)pyridin-2-yl)oxy)quinolin-8-yl)pyrrolidine-2-carboxamide]	6.52 to 7.30
COc1cc(NC(=O)[C@H]2CCC(=O)N2C)cc(OC2CCC(C(F)(F)F)CC2)c1 (some centres unmarked) [Compound 282]	> 7.30
COc1ccc(Oc2ccc(C(F)(F)F)cn2)cc1NC(=O)[C@H]1CCC(=O)N1C [Compound 283, (R)—N-(2-Methoxy-5-((5-(trifluoromethyl)pyridin-2-yl)oxy)phenyl)-1-methyl-5-oxopyrrolidine-2-carboxamide]	> 7.30
COc1cc(NC(=O)C2CCC(=O)N2C)cc(Oc2ccc(F)c(F)c2)c1 (centres unmarked) [Compound 284, N-(3-(3,4-Difluorophenoxy)-5-methoxyphenyl)-1-methyl-5-oxopyrrolidine-2-carboxamide]	6.52 to 7.30
COc1cc(NC(=O)[C@H]2CCC(=O)N2C)cc(Oc2ccc(F)c(F)c2)c1 [Compound 285, (R)—N-(3-(3,4-Difluorophenoxy)-5-methoxyphenyl)-1-methyl-5-oxopyrrolidine-2-carboxamide]	6.52 to 7.30
COc1ccc(OC2CCCCC2)cc1NC(=O)C1CCC(=O)N1C (centres unmarked) [Compound 286, N-(5-(Cyclohexyloxy)-2-methoxyphenyl)-1-methyl-5-oxopyrrolidine-2-carboxamide]	6.52 to 7.30
COc1ccc(OC2C=CCCC2)cc1NC(=O)C1CCC(=O)N1C (centres unmarked) [Compound 287, N-(5-(Cyclohex-2-en-1-yloxy)-2-methoxyphenyl)-1-methyl-5-oxopyrrolidine-2-carboxamide]	5.70 to 6.52
COc1ccc(Oc2ccc(Cl)cn2)cc1NC(=O)[C@@H]1CCC(=O)N1C [Compound 288, (S)—N-(5-((5-Chloropyridin-2-yl)oxy)-2-methoxyphenyl)-1-methyl-5-oxo-pyrrolidine-2-carboxamide]	6.52 to 7.30

Structure (SMILES)	pIC50
COc1ccc(Oc2cccc(C(F)(F)F)c2)cc1NC(=O)C1CN(C(C)=O)C1 [Compound 289, 1-Acetyl-N-(2-methoxy-5-(3-(trifluoromethyl)phenoxy)phenyl)azetidine-3-carboxamide]	5.70 to 6.52
COc1ccc(Oc2ccc(OC(F)(F)F)cc2)cc1NC(=O)[C@H]1CCC(=O)N1C [Compound 290, (R)—N-(2-methoxy-5-(4-(trifluoromethoxy)phenoxy)phenyl)-1-methyl-5-oxopyrrolidine-2-carboxamide]	> 7.30
COc1ccc(Oc2cccc(OC(F)(F)F)c2)cc1NC(=O)C1CCC(=O)N1C (centres unmarked) [Compound 291, N-(2-methoxy-5-(3-(trifluoromethoxy)phenoxy)phenyl)-1-methyl-5-oxo-pyrrolidine-2-carboxamide]	6.52 to 7.30
COc1ccc(Oc2ccc(C(F)F)cc2)cc1NC(=O)C1CCC(=O)N1C (centres unmarked) [Compound 292, N-(5-(4-(Difluoromethyl)phenoxy)-2-methoxyphenyl)-1-methyl-5-oxo-pyrrolidine-2-carboxamide]	> 7.30
COc1cc(Oc2ccc(OC)c(NC(=O)[C@H]3CCC(=O)N3C)c2)ccc1F [Compound 293, (R)—N-(5-(4-Fluoro-3-methoxyphenoxy)-2-methoxyphenyl)-1-methyl-5-oxo-pyrrolidine-2-carboxamide]	6.52 to 7.30
COc1ccc(OCC2CCCCC2)cc1NC(=O)C1CCC(=O)N1C (centres unmarked) [Compound 294, N-(5-(Cyclohexylmethoxy)-2-methoxyphenyl)-1-methyl-5-oxopyrrolidine-2-carboxamide]	> 7.30
COc1ccc(Oc2ccc(OC)c(NC(=O)C3CCC(=O)N3C)c2)cc1F (centres unmarked) [Compound 295, N-(5-(3-Fluoro-4-methoxyphenoxy)-2-methoxyphenyl)-1-methyl-5-oxo-pyrrolidine-2-carboxamide]	6.52 to 7.30
COc1ccc(OC2CCC(C)(C)CC2)cc1NC(=O)C1CCC(=O)N1C (centres unmarked) [Compound 296, N-(5-((4,4-Dimethylcyclohexyl)oxy)-2-methoxyphenyl)-1-methyl-5-oxo-pyrrolidine-2-carboxamide]	> 7.30
COc1ccc(Sc2ccc(F)c(F)c2)cc1NC(=O)C1CCC(=O)N1C (centres unmarked) [Compound 297, N-(5-((3,4-Difluorophenyl)thio)-2-methoxyphenyl)-1-methyl-5-oxopyrrolidine-2-carboxamide]	> 7.30
COc1ccc(Sc2ccc(F)c(F)c2)cc1NC(=O)C1CCC(=O)N1 (centres unmarked) [Compound 298, N-(5-((3,4-Difluorophenyl)thio)-2-methoxyphenyl)-5-oxopyrrolidine-2-carboxamide]	> 7.30
COc1ccc(Oc2cccc(Br)c2)cc1NC(=O)C1CCC(=O)N1C (centres unmarked) [Compound 299, N-(5-(3-Bromophenoxy)-2-methoxyphenyl)-1-methyl-5-oxopyrrolidine-2-carboxamide]	> 7.30
COc1ccc(Oc2ccc(OC(F)(F)F)cc2)cc1NC(=O)C1CCC(=O)N1 (centres unmarked) [Compound 300, N-(2-Methoxy-5-(4-(trifluoromethoxy)phenoxy)phenyl)-5-oxopyrrolidine-2-carboxamide]	> 7.30
COc1ccc(Oc2ccc(OC(C)C)cc2)cc1NC(=O)C1CCC(=O)N1 (centres unmarked) [Compound 301, N-(5-(4-Isopropoxyphenoxy)-2-methoxyphenyl)-5-oxopyrrolidine-2-carboxamide]	5.70 to 6.52
COc1ccc(OCC2CC(F)(F)C2)cc1NC(=O)C1CCC(=O)N1C (centres unmarked) [Compound 302, N-(5-((3,3-Difluorocyclobutyl)methoxy)-2-methoxyphenyl)-1-methyl-5-oxopyrrolidine-2-carboxamide]	5.70 to 6.52
CN1C(=O)CCC1C(=O)Nc1cc(Oc2ccc(F)cc2)cc(C(F)(F)F)c1 (centres unmarked) [Compound 303, N-(3-(4-Fluorophenoxy)-5-(trifluoromethyl)phenyl)-1-methyl-5-oxopyrrolidine-2-carboxamide]	5.70 to 6.52
COc1ccc(Oc2ccc(Cl)cc2)cc1NC(=O)C1CCC(=O)N1C (centres unmarked) [Compound 304, N-(5-(4-Chlorophenoxy)-2-methoxyphenyl)-1-methyl-5-oxopyrrolidine-2-carboxamide]	> 7.30
COc1ccc(Oc2ccc(Cl)c(F)c2)cc1NC(=O)C1CCC(=O)N1C (centres unmarked) [Compound 305, N-(5-(4-Chloro-3-fluorophenoxy)-2-methoxyphenyl)-1-methyl-5-oxopyrrolidine-2-carboxamide]	> 7.30
CN1C(=O)CCC1C(=O)Nc1cc(C#N)cc(Oc2ccc(C(F)(F)F)cc2)c1 (centres unmarked) [Compound 306, N-(3-Cyano-5-(4-(trifluoromethyl)phenoxy)phenyl)-1-methyl-5-oxopyrrolidine-2-carboxamide]	5.70 to 6.52
COc1ccc(Oc2ccc(Cl)cc2)cc1NC(=O)[C@@H]1CCC(=O)N1C [Compound 307, (S)—N-(5-(4-Chlorophenoxy)-2-methoxyphenyl)-1-methyl-5-oxopyrrolidine-2-carboxamide]	> 7.30
